Values after ≈ are worked out from the molar mass of the structure shown.
Key:
Type in all cases: functional
[1] = system: Staphylococcus epidermidis; test: Antibacterial activity against methicillin-sensitive Staphylococcus epidermidis after 16 hrs by agar dilution method
Staphylococcus aureus [2] = test: Antibacterial activity against methicillin-resistant Staphylococcus aureus after 16 hrs by agar dilution method
Staphylococcus aureus [3] = test: Antibacterial activity against Staphylococcus aureus […] after 16 hrs by agar dilution method
[4] = system: Staphylococcus epidermidis; test: Antibacterial activity against methicillin-resistant Staphylococcus epidermidis after 16 hrs by agar dilution method
Streptococcus pneumoniae = test: Antibacterial activity against penicillin-resistant Streptococcus pneumoniae after 16 hrs by agar dilution method
Staphylococcus aureus [5] = test: Antibacterial activity against methicillin-sensitive Staphylococcus aureus after 16 hrs by agar dilution method

Structure (SMILES) | MIC [1] [µg/mL] | MIC (Staphylococcus aureus [2]) [µg/mL] | MIC (Staphylococcus aureus [3]) [µg/mL] | MIC [4] [µg/mL] | MIC (Streptococcus pneumoniae) [µg/mL] | MIC (Staphylococcus aureus [5]) [µg/mL]
C=C[C@]1(C)C[C@@H](OC(=O)CSc2cncc(NC(=O)[C@@H]3CCCN3)c2)[C@]2(C)[C@H](C)CC[C@]3(CCC(=O)[C@H]32)[C@@H](C)[C@@H]1O | 0.063 (≈ 0.108 µM) | 0.125 (≈ 0.214 µM) | 0.125 (≈ 0.214 µM) | 0.125 (≈ 0.214 µM) | 0.031 (≈ 0.0531 µM) | 0.031 (≈ 0.0531 µM)
C=C[C@]1(C)C[C@@H](OC(=O)CSc2ccc([N+](=O)[O-])cn2)[C@]2(C)[C@H](C)CC[C@]3(CCC(=O)[C@H]32)[C@@H](C)[C@@H]1O | 0.25 (≈ 0.484 µM) | 0.5 (≈ 0.968 µM) | 1 (≈ 1.94 µM) | 0.25 (≈ 0.484 µM) | 0.5 (≈ 0.968 µM) | 0.25 (≈ 0.484 µM)
C=C[C@]1(C)C[C@@H](OC(=O)CSc2ncccc2C#N)[C@]2(C)[C@H](C)CC[C@]3(CCC(=O)[C@H]32)[C@@H](C)[C@@H]1O | 0.5 (≈ 1.01 µM) | 0.5 (≈ 1.01 µM) | 1 (≈ 2.01 µM) | 0.5 (≈ 1.01 µM) | 0.5 (≈ 1.01 µM) | 0.5 (≈ 1.01 µM)
C=C[C@]1(C)C[C@@H](OC(=O)CSc2cncc(/C=N/OC)c2)[C@]2(C)[C@H](C)CC[C@]3(CCC(=O)[C@H]32)[C@@H](C)[C@@H]1O | 0.25 (≈ 0.473 µM) | 0.25 (≈ 0.473 µM) | 0.125 (≈ 0.236 µM) | 0.25 (≈ 0.473 µM) | 0.5 (≈ 0.946 µM) | 0.125 (≈ 0.236 µM)
C=C[C@]1(C)C[C@@H](OC(=O)CSc2cccnc2)[C@]2(C)[C@H](C)CC[C@]3(CCC(=O)[C@H]32)[C@@H](C)[C@@H]1O | 0.125 (≈ 0.265 µM) | 0.125 (≈ 0.265 µM) | 0.25 (≈ 0.53 µM) | 0.25 (≈ 0.53 µM) | 0.125 (≈ 0.265 µM) | 0.125 (≈ 0.265 µM)
C=C[C@]1(C)C[C@@H](OC(=O)CSc2ccnc(CO)c2)[C@]2(C)[C@H](C)CC[C@]3(CCC(=O)[C@H]32)[C@@H](C)[C@@H]1O | 0.031 (≈ 0.0618 µM) | 0.031 (≈ 0.0618 µM) | 0.063 (≈ 0.126 µM) | 0.031 (≈ 0.0618 µM) | 0.063 (≈ 0.126 µM) | 0.063 (≈ 0.126 µM)
C=C[C@]1(C)C[C@@H](OC(=O)CSc2ccc(N)cn2)[C@]2(C)[C@H](C)CC[C@]3(CCC(=O)[C@H]32)[C@@H](C)[C@@H]1O | 0.063 (≈ 0.129 µM) | 0.063 (≈ 0.129 µM) | 0.125 (≈ 0.257 µM) | 0.063 (≈ 0.129 µM) | 0.063 (≈ 0.129 µM) | 0.063 (≈ 0.129 µM)
C=C[C@]1(C)C[C@@H](OC(=O)CSc2cccs2)[C@]2(C)[C@H](C)CC[C@]3(CCC(=O)[C@H]32)[C@@H](C)[C@@H]1O | 0.25 (≈ 0.524 µM) | 0.5 (≈ 1.05 µM) | 0.5 (≈ 1.05 µM) | 0.25 (≈ 0.524 µM) | 0.125 (≈ 0.262 µM) | 0.5 (≈ 1.05 µM)
C=C[C@]1(C)C[C@@H](OC(=O)CSc2ncccc2N)[C@]2(C)[C@H](C)CC[C@]3(CCC(=O)[C@H]32)[C@@H](C)[C@@H]1O | 0.125 (≈ 0.257 µM) | 0.25 (≈ 0.514 µM) | 0.5 (≈ 1.03 µM) | 0.125 (≈ 0.257 µM) | 0.25 (≈ 0.514 µM) | 0.25 (≈ 0.514 µM)
C=C[C@]1(C)C[C@@H](OC(=O)CSc2cncc(NC(=O)CN3CCC[C@H]3CO)c2)[C@]2(C)[C@H](C)CC[C@]3(CCC(=O)[C@H]32)[C@@H](C)[C@@H]1O | 0.125 (≈ 0.199 µM) | 0.125 (≈ 0.199 µM) | 0.063 (≈ 0.1 µM) | 0.125 (≈ 0.199 µM) | 0.125 (≈ 0.199 µM) | 0.125 (≈ 0.199 µM)

From ChEMBL document CHEMBL3286253, “Design, synthesis, and structure-activity relationship studies of novel thioether pleuromutilin derivatives as potent antibacterial agents” (J Med Chem, 2014)
